# Values joined by “and” are separate entries in the source; they are usually repeats but may differ in a detail not shown here. Equal values may be shown once.
# Experiments:
# Type in all cases: in vivo
# [1] = tested on: Alternaria solani; assay: Preventive glasshouse test against Alternaria solani in tomato (Example G); settings: single compound
# Method: (§1) The single compounds or respective compound combinations were dissolved in 2% dimethyl sulfoxide/acetone and then mixed with water containing emulsifier to a calibrated spray volume of 50 mL. The test solutions were poured into spray bottles for further applications.
# (§2) To test the preventive activity, healthy young tomato plants, raised in the greenhouse, were sprayed with the active compound preparation at the stated application rates inside the spray cabinets using hollow cone nozzles. One day after treatment, the plants were inoculated with a spore suspension containing 0.24×10^6 Alternaria solani inoculum and 2% Malt. The inoculated plants were then kept in a greenhouse chamber at a temperature of 22-24° C. and 90-95% relative humidity for disease expression.
# (§3) A visual assessment of the performance of the single compounds or compound combinations was carried out by rating the disease severity (0-100% scale) on treated plants 3, 7, 10 and 15 days after application. Efficacy (% control) of the single compounds and mixtures was calculated by comparing the disease rating in the treatment with the one of the untreated control. The compounds were also assessed for their plant compatibility by recording symptoms like necrosis, chlorosis and stunting. The results have been described for the compound of formula (I-III) in Table G.
# [2] = tested on: Helicoverpa armigera; assay: Diet incorporation method against Helicoverpa armigera (Example A); settings: single compound, 96 h
# Method: The diet incorporation method was used, in which semi-synthetic diet was incorporated into the test solutions consisting either of the single compounds or respective compound combinations, when the temperature was approximately 50° C. in the bio-assay containers, then stirred thoroughly for proper mixing and allowed to cool for 30 min. The solidified diet was cut into equal pieces, and then each piece was transferred into one cell of a bio-assay tray. A single starved third instar larva was released into each of these cells of the bio-assay trays and the tray was covered with a lid. The bio-assay trays were kept under laboratory conditions at a temperature of 25° C. and relative humidity of 70%. Observations on dead, moribund and live larvae were recorded 96 h after the release of the larvae. Percent mortality was calculated by combining dead and moribund larvae and comparing the result to the one of the untreated control. The results are shown for the compound of formula (I-III) in Table A.
# [3] = tested on: Spodoptera litura; assay: Diet incorporation method against Spodoptera litura (Example B); settings: single compound, 96 h
# Method: The diet incorporation method was used, in which semi-synthetic diet was incorporated into the test solution consisting either of the single compound or respective compound combinations, when the temperature was approximately 50° C. in the bioassay containers, then stirred thoroughly for proper mixing and allowed to cool for 30 min. The solidified diet was cut into equal pieces, and then each piece was transferred into one cell of the bio-assay trays. A single starved third instar larva was released into each of these cells of the bio-assay trays and the tray was covered with a lid. The bio-assay trays were kept under laboratory conditions at a temperature of 25° C. and relative humidity of 70%. Observations on dead, moribund and live larvae were recorded 96 h after the release. Percent mortality was calculated by combining dead and moribund larvae and comparing the result with the one of the untreated control. The results are shown for the compound of formula (I-III) in Table B.
# [4] = tested on: Erysiphe cichoracearum; assay: Preventive glasshouse test against Erysiphe cichoracearum in cucumber (Example K); settings: single compound
# Method: The single compounds or the respective compound combinations were dissolved in 2% dimethyl sulfoxide/acetone and then mixed with water containing emulsifier to a calibrated spray volume of 50 mL. The test solutions were poured into spray bottles for further applications.
# as §2, with “activity of compounds,” for “activity,”, “cucumber” for “tomato”, “conidial” for “spore”, “2×10^5 Erysiphe cichoracearum inoculum.” for “0.24×10^6 Alternaria solani inoculum and 2% Malt.”, “50-60%” for “90-95%”
# A visual assessment of the performance of the compounds and the respective compound combinations was carried out by rating the disease severity (0-100% scale) on treated plants 3, 7, 10 and 15 days after application. Efficacy (% control) of the single compounds or compound combinations was calculated by comparing the disease rating in the treatment with the one of the untreated control. The compounds were also assessed for their plant compatibility by recording symptoms like necrosis, chlorosis and stunting. The results have been described for the compound of formula (I-III) in Table K.
# [5] = tested on: Pyricularia oryzae; settings: single compound, 0.05 ppm, preventive, rice
# [6] = tested on: Septoria nodorum; assay: Preventive glasshouse test against Parastagonospora nodorum/Septoria nodorum/Stagnospora nodorum in wheat (Example J); settings: single compound
# Method: as §1
# To test the preventive activity of compounds, healthy young wheat plants, raised in the greenhouse, were sprayed with the active compound preparation at the stated application rates inside the spray cabinets using hollow cone nozzles. One day after treatment, the plants were inoculated with a spore suspension containing 2.8×10^6 Stagnospora nodorum inoculum.
# The inoculated plants were then kept in a greenhouse chamber at 22-25° C. temperature and 90-100% relative humidity for disease expression.
# as §3, with “J.” for “G.”
# [7] = tested on: Phakopsora pachyrhizi; assay: Preventive glasshouse test against Phakopsora pachyrhizi in soybean (Example H); settings: single compound
# Method: The single compounds or the respective compound combinations were dissolved in 2% dimethyl sulfoxide/acetone and then mixed with water containing an emulsifier to a calibrated spray volume of 50 ml. The test solutions were poured into spray bottles for further applications.
# as §2, with “activity of compounds,” for “activity,”, “Soybean” for “tomato”, “a” for “a spore”, “2×10^5 Phakopsora pachyrhizi conidia.” for “0.24×10^6 Alternaria solani inoculum and 2% Malt.”, “80-90%” for “90-95%”
# A visual assessment of the performance of the single compounds and respective compound combinations was carried out by rating the disease severity (0-100% scale) on treated plants 3, 7, 10 and 15 days after application. Efficacy (% control) of the compounds was calculated by comparing the disease rating in the treatment with the one of the untreated control. The compounds were also assessed for their plant compatibility by recording symptoms like necrosis, chlorosis and stunting. The results have been described for the compound of formula (I-III) in Table H.
# [8] = Spodoptera litura, 100 ppm, read-out: Observed Efficacy (%)
# [9] = Helicoverpa armigera, 100 ppm, read-out: Observed Efficacy (%)
# [10] = Spodoptera litura, 200 ppm, read-out: Observed Efficacy (%)
Structure (SMILES),Observed Efficacy (%) ([1]; 0.05 ppm),Observed Efficacy (%) ([1]; 0.1 ppm),Observed Efficacy (%) ([2]; 100 ppm),Observed Efficacy (%) ([3]; 100 ppm),Observed Efficacy (%) ([3]; 500 ppm),Observed Efficacy (%) ([4]; Conc. 0.05 ppm),"pest or weed control at 100 ppm [3, 8] [%]",Observed Efficacy (%) ([3]; 200 ppm),Observed Efficacy (%) ([7]; 10.0 ppm),Observed Efficacy (%) ([4]; Conc. 10 ppm),"pest or weed control at 100 ppm [2, 9] [%]","pest or weed control at 200 ppm [3, 10] [%]",further results
CO/C=C(/C(=O)OC)c1ccccc1Oc1cc(Oc2ccccc2C#N)ncn1 [Azoxystrobin],26,40,0,0,0,26,–,–,–,–,–,–,Observed Efficacy (%) ([2]; 500 ppm): 0%; Observed Efficacy (%) ([4]; Conc. 0.1 ppm): 43%; Observed Efficacy (%) [5]: 30%
O=C(NCCc1ncc(C(F)(F)F)cc1Cl)c1ccccc1C(F)(F)F [Fluopyram],–,–,–,–,–,–,0,–,–,–,–,–,"Observed Efficacy (%) ([1]; 10 ppm): 67%; pest or weed control at 50 ppm ([2]; Helicoverpa armigera, 50 ppm, read-out: Observed Efficacy (%)): 0%; Observed Efficacy (%) ([6]; 10 ppm): 25%"
Cn1cc(C(=O)Nc2ccccc2-c2cc(F)c(F)c(F)c2)c(C(F)F)n1 [Fluxapyroxad],14,26,–,0,0,29,–,0,–,–,–,–,Observed Efficacy (%) ([6]; 0.05 ppm): 12%; Observed Efficacy (%) ([6]; 0.1 ppm): 29%
N#Cc1ccccc1NC(=O)c1snc(Cl)c1Cl [Isotianil],–,–,0,0,–,–,–,0,31,51,–,–,Observed Efficacy (%) ([2]; 200 ppm): 25%; Observed Efficacy (%) ([7]; 50.0 ppm): 41%; Observed Efficacy (%) ([4]; Conc. 50 ppm): 57%
C=CCOC1=NS(=O)(=O)c2ccccc21 [Probenazole],–,–,–,–,–,–,12.5,–,28,22,0,0,Observed Efficacy (%) ([7]; 2.0 ppm): 22%; Observed Efficacy (%) ([4]; Conc. 2 ppm): 15% and 16%
COC(=O)N(OC)c1ccccc1COc1ccn(-c2ccc(Cl)cc2)n1 [Pyraclostrobin],26,26,–,–,–,29,12.5,–,–,–,0,12.5,"Observed Efficacy (%) ([7]; 0.05 ppm): 39%; pest or weed control at 500 ppm ([3]; Spodoptera litura, 500 ppm, read-out: Observed Efficacy (%)): 12.5%"

# From patent publication US20230276804A1, “A PESTICIDALLY ACTIVE MIXTURE COMPRISING PYRAZOLOPYRIDINE ANTHRANILAMIDE COMPOUND, OXIDES OR SALTS THEREOF” (priority 2020, published 2023)
